Results on nine molecules are retold here after patent EP1043318A1 (priority 1997, dated 1999).

Data set [1] concerns herpes simplex type 1 (VPG-1/Leningrad/248/88). Nature of the data set: Antiviral activity on herpes virus, cytopathic effect in Vero cell culture. As to conditions: unchanged Vero cells after 36 hours. It counts as cell-based, herpes simplex virus. Background: Protection from cytopathic effect is a common read-out in antiviral testing.
A further data set has as its system C. trachomatis D323. Briefly: Activity on Chlamydia trachomatis in infected cell culture. Type of data set: cell-based. Conditions: for No. of unchanged cells: 100 viewing fields, cell control 9.000, infected cells 6.000.
A further data set has as its system M. tuberculosis 61 (S). Nature of the data set: Activity on pathogenic mycobacteria, growth on Lewenstein-Jensen medium (sensitive strain). Type of data set: cell-based. As to conditions: strain sensitive to control preparations; concentration of the preparation 50.0 g/l (table title); incubated 30 days.
Data set [2] relates to primary culture of humans lymphocytes. Briefly: Interferon-inducing activity in primary lymphocyte culture (immunoenzyme determination of INF). It counts as cell-based, human.
The next data set in a line: Acute toxicity in mice. More on the design: species or system non-linebred white mice. As to conditions: mouse, in vivo, iv, by mouth or intravenously, 14 days observation. How it is done:
Acute toxicity was determined on non-linebred white mice weighing 18-20 g. The claimed compounds were prepared in a range of concentrations: 1500, 700, 500, 100, 20 and 5 µg/kg. Five animals were used to study each specific concentration of a compound. The preparation was administered once a day by mouth of intravenously. The observation period was 14 days On days 1, 8 and 15 the animals in every group were weighed. For a control we used animals who received the emulsion without the test compounds. All animals, both those that died in the course of the experiment and those that survived to the end of the experiment, were opened to allow macroscopic examination of internal organs. In the course of the experiment no loss of weight was observed or any change in behavior or external appearance, nor was there any loss of life. Based on the results of the macroscopic examination of internal organs of the animals in the test and the control groups, no pathological findings were made, [text missing]

Regarding “2-hydroxyethylammonium salt of 5,5'-(p-nitrobenzylidene)bisbarbituric acid [III]”, the “number of cells in 100 fields” value in data set [1] (10 mg/l) is 2000; in data set [1] (50 mg/l), 3000; in data set [1] (100 mg/l), 5500. Moreover, the “percent protection of the cells against infection” value was 60% with C. trachomatis D323 (10 mg/l) and 65% in the data set with C. trachomatis D323 (100 mg/l). Besides, the “No. of unchanged cells” value came out at 7800 in the data set with C. trachomatis D323 (10 mg/l) and 7950 in the data set with C. trachomatis D323 (100 mg/l).
Consider `Nc1nc2c(ncn2COCCO)c(=O)[nH]1` [Acyclovir, reference compound], for which, in data set [1] (10 mg/l), the “number of cells in 100 fields” value is on record as 8000.
On to `CC[C@@H](CO)NCCN[C@@H](CC)CO` [Ethambutol], for which, in the data set with M. tuberculosis 61 (S), the “M. tuberculosis 61S growth” value was “complete suppression of growth”.
For `O=C1NC(=S)NC(=O)C1C(c1ccc(Cl)cc1)C1C(=O)NC(=S)NC1=O` [IX], the “number of cells in 100 fields” value in data set [1] (10 mg/l) is reported as 10000; in data set [1] (50 mg/l), 10000; in data set [1] (100 mg/l) it was 3000. For the same molecule, the “Concentration of INF in induction mixture after 24 hrs. of incubation” value (“Concentration of INF” below) is given as 5,6 ± 0,8 IU/3·10^4 lymph/ml in data set [2] (1 mg/l of the preparation), 21,0 ± 0,9 IU/3·10^4 lymph/ml in data set [2] (10 mg/l of the preparation) and 35,2 ± 1,6 IU/3·10^4 lymph/ml in data set [2] (100 mg/l of the preparation).
Turning to `NNC(=O)c1ccncc1` [Isoniazid], the “M. tuberculosis 61S growth” value in the data set on M. tuberculosis 61 (S) is on record as “complete suppression of growth”.
As to `[H]/N=C(/N)N[C@H]1[C@H](O)[C@@H](O)[C@H](O[C@@H]2O[C@@H](C)[C@](O)(C=O)[C@H]2O[C@@H]2O[C@@H](CO)[C@H](O)[C@@H](O)[C@@H]2NC)[C@@H](N/C(N)=N\[H])[C@@H]1O` [Streptomycin], the “M. tuberculosis 61S growth” value in the data set with M. tuberculosis 61 (S) is “complete suppression of growth”.
For the molecule `O=C1NC(=S)NC(=O)C1C(c1ccc([N+](=O)[O-])cc1)C1C(=O)NC(=S)NC1=O` [X, 5,5'-(p-nitrobenzylidene)bis (2-thiobarbituric) acid], the “M. tuberculosis 61S growth” value in the data set with M. tuberculosis 61 (S) was “complete suppression of growth”. Besides, the LD50 at 336 h in the data set “Acute toxicity in mice” came to 1000 mg/kg. The “number of cells in 100 fields” value was found to be 10000 in data set [1] (10 mg/l), 10000 in data set [1] (50 mg/l) and 3000 in data set [1] (100 mg/l). Further, the figures for the “Concentration of INF” value in data set [2] (1 mg/l of the preparation), in data set [2] (10 mg/l of the preparation) and in data set [2] (100 mg/l of the preparation) were 4.0 ± 0.5 IU/3·10^4 lymph/ml, 23 ± 1.0 IU/3·10^4 lymph/ml and 47 ± 0.8 IU/3·10^4 lymph/ml, respectively.
As for “pyridine salt of 5,5'-(p-bromobenzylidene)bisbarbituric acid [VIII]”, the “number of cells in 100 fields” value in data set [1] (10 mg/l) is 10000; in data set [1] (50 mg/l), 2500; in data set [1] (100 mg/l) it was 5000. Further, the “Concentration of INF” value in data set [2] (1 mg/l of the preparation) is listed as 0,9 ± 0,2 IU/3·10^4 lymph/ml; in data set [2] (10 mg/l of the preparation), 1,2 ± 0,4 IU/3·10^4 lymph/ml; in data set [2] (100 mg/l of the preparation), 3,8 ± 0,4 IU/3·10^4 lymph/ml.
On to “pyridine salt of 5,5'-(p-chlorobenzylidene)bis(2-thiobarbituric) acid [IV]”, for which the “number of cells in 100 fields” value in data set [1] (10 mg/l) is recorded as 10000; in data set [1] (50 mg/l), 2000; in data set [1] (100 mg/l), 4000. The “Concentration of INF” value is 1,3 ± 0,5 IU/3·10^4 lymph/ml in data set [2] (1 mg/l of the preparation), 3,7 ± 1,0 IU/3·10^4 lymph/ml in data set [2] (10 mg/l of the preparation) and 23,0 ± 1,7 IU/3·10^4 lymph/ml in data set [2] (100 mg/l of the preparation).

The LD50 is the dose expected to kill half of the subjects tested. A higher LD50 goes with a less toxic substance.
